Measurements as given in publication PMC4210890, “Suvanine Sesterterpenes from a Tropical Sponge Coscinoderma sp. Inhibit Isocitrate Lyase in the Glyoxylate Cycle” (Marine Drugs, 2014).
Converted amounts (≈) assume the structure as drawn. “And” between values parts separate entries of the source, which are not always exact repeats. Equal values may be shown once. Read-outs that look alike come from different tables or passages of the source.

What was measured:
C. albicans SC5314 = assay: In vitro growth assay (MIC) in YNB broth with glucose or acetate; format: cell-based, Candida albicans; conditions: 3 days at 28 °C; for MIC: Candida albicans, 72 h
Protocol: The microbial strategy for survival during growth in a nutrient-free environment entails a metabolic shift in the carbon source to C2 substrates generated by β-oxidation of fatty acids. […] To investigate whether ICL inhibitors affected C2 substrate use, we cultured C. albicans strain SC5314 in YNB broth containing either 2% glucose or 2% potassium acetate as the sole carbon source, and inhibition was evaluated based on the MIC.
C. albicans strains were grown in YNB ([…] yeast nitrogen base) broth containing 2% glucose at 28 °C for 24 h, harvested by centrifugation, and washed twice with sterile distilled water. Each test compound was dissolved in DMSO and diluted with YNB containing 2% glucose or 2% potassium acetate to prepare serial twofold dilutions in the range 100–0.1 μg/mL. The final DMSO concentration was maintained at 0.5% by adding DMSO to the medium. Twenty microliters of the broth containing test fungus was added to each well of a 96-well microtiter plate (final concentration of 1 × 10^4 cells/mL). Culture plates were incubated for 3 days at 28 °C. […] Amphotericin B was used as a reference compound.

ICL from C. albicans = ICL from C. albicans (Candida albicans, UniProt Q9P8Q7); assay: biochemical; format: biochemical; conditions: for type of inhibition: Lineweaver and Burk plot at IC50 or twofold IC50; for reversibility of binding to enzyme: enzyme activity recovered by dialysis within 2 h
Protocol: To determine the type of inhibition, kinetic studies were performed with compounds 1, 2 and 4 at IC50 or twofold IC50 based on Lineweaver and Burk plot (Figure 3). Inhibitor constants were obtained by Dixon plot.
Figure 3 Lineweaver-Burk plot of ICL inhibition by compounds 1, 2 and 4. [S], substrate concentration [mM]; V, reaction velocity (∆absorbance unit/min). Each data point represents the mean of three experiments.

[1] = target: T1, recombinant ICL from C. albicans ATCC 10231 (Candida albicans, UniProt Q9P8Q7); assay: biochemical
T1 construct: thioredoxin (fusion partner of the pBAD/Thio-TOPO vector); made in house; host or cells: Escherichia coli TOP10
Protocol: Compound 1−9 were obtained as mentioned previously (Figure 1). The expression and purification of recombinant ICL from the genomic DNA of C. albicans (ATCC 10231) were carried out by a method described previously. The inhibitory effects of the isolated compounds on ICL were evaluated according to a procedure documented previously. The basic concept of this method was to measure spectrophotometrically the formation of glyoxylate phenylhydrazone in the presence of phenylhydrazine and isocitrate. The effect of the inhibitor on ICL was calculated as a percentage relative to dimethyl sulfoxide (DMSO)-treated control. Mixture of ICL, substrate, phenyhydrazine was incubated for 30 min with various concentrations of suvanine sesterterpenes (100 to 0.1 μg/mL). The formation of glyoxylate phenylhydrazone was followed spectrophotometrically at 324 nm. Data were scaled to internal controls, and a four- parameter logistic model (GraphPad ver. 5.0, Prism) was used to fit the measured data and determine IC50 (inhibitory concentration for 50% activity) values.
The preparation of recombinant ICL protein from the genomic DNA of C. albicans ATCC 10231 was carried out using a method described previously. Briefly, ICL was PCR-amplified using two synthetic primers: 5′-[…]-3′ (forward) and 5′-[…]-3′ (reverse). The PCR product was cloned into the pBAD/Thio-TOPO vector (Invitrogen, Carlsbad, CA, USA) and transformed into Escherichia coli TOP10 (Invitrogen).
The effect of isolated compounds on ICL was evaluated according to a procedure documented previously. A 1-mL aliquot of the reaction mixture contained 20 mM sodium phosphate buffer (pH 7.0), 1.27 mM threo-DL (+) isocitrate, 3.75 mM MgCl2, 4.1 mM phenylhydrazine and 2.5 μg/mL purified ICL. The reaction was performed at 37 °C for 30 min with and without a prescribed concentration of the inhibitor dissolved in DMSO (final concentration, 0.5%). The formation of glyoxylate phenylhydrazone was followed spectrophotometrically at 324 nm. The effect of the inhibitor on ICL was calculated as a percentage relative to the solvent-treated control. A 12-point, twofold serial dilution dose–response assay was performed in triplicate. The resultant dose–response concentration range was 100 to 0.1 μg/mL of inhibitor in a 1-mL final reaction volume. Data were scaled to internal controls, and a four-parameter logistic model (GraphPad ver. 5.0, Prism) was used to fit the measured data and determine the IC50 values. The ICL inhibitor 3-nitropropionate was used as a positive control. Protein concentration was determined by the method of Bradford using the Bio-Rad protein assay kit (Bio-Rad, Hercules, CA, USA) and bovine serum albumin as a standard.

[2] = tested on: C. albicans strain SC5314 (wild-type), MRC10 (Δicl), and MRC11 (Δicl + ICL); assay: Growth phenotype of wild-type and ICL deletion mutants on YNB agar plates; format: cell-based, Candida albicans; conditions: 12.5 μg/mL, 3 days at 28 °C
[3] = tested on: ICL mRNA expression in C. albicans; assay: Semi-quantitative RT-PCR analysis of ICL mRNA expression; format: cell-based, Candida albicans; conditions: acetate medium
[4] = YNB broth with 2% glucose, read-out: MIC, Glucose
[5] = YNB broth with 2% potassium acetate, read-out: MIC, Acetate
[6] = YNB broth with 2% potassium acetate
[7] = recombinant ICL from C. albicans ATCC 10231, 37 °C, 30 min, mean ± SD (n = 3), read-out: ICL IC50
[8] = recombinant ICL from C. albicans ATCC 10231, value in parentheses
[9] = recombinant ICL from C. albicans ATCC 10231, value in parentheses, read-out: ICL IC50

T1 sequence (Q9P8Q7 whole entry, the tested form may be a part): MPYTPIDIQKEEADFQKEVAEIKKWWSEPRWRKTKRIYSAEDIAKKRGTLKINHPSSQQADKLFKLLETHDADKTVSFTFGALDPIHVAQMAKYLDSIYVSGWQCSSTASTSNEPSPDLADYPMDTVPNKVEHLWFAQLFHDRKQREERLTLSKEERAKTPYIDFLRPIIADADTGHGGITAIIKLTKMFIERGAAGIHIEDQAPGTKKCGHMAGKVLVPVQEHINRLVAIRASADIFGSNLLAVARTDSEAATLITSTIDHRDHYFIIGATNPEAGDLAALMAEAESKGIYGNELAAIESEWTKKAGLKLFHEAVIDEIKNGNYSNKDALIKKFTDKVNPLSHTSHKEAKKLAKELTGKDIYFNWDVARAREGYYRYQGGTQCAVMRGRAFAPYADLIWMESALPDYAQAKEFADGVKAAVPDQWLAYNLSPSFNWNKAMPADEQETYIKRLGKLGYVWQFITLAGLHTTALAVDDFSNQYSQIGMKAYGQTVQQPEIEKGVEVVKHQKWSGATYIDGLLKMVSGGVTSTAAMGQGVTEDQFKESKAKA
ICL from C. albicans, sequence (Q9P8Q7 whole entry): as the sequence (Q9P8Q7 whole entry, the tested form may be a part) above

SMILES | MIC (C. albicans SC5314; [4]) | MIC (C. albicans SC5314; [5]) | IC50 ([1]; ICL IC50) | IC50 [1, 7] | also measured
C[C@@H]1[C@H](O)[C@@H](C)/C=C/C=C/C=C/C=C/C=C/C=C/C=C/[C@H](O[C@@H]2O[C@H](C)[C@@H](O)[C@H](N)[C@@H]2O)C[C@@H]2O[C@](O)(C[C@@H](O)C[C@@H](O)[C@H](O)CC[C@@H](O)C[C@@H](O)CC(=O)O[C@H]1C)C[C@H](O)[C@H]2C(=O)O [Amph B, Amphotericin B, reference compound] | 1.56 µg/mL (≈ 1.69 µM) | 0.39 µg/mL (≈ 0.422 µM) | – | – | –
CC1(C)CCC[C@]2(C)[C@H]3CC/C(=C\OS(=O)(=O)[O-])[C@H](CCc4ccoc4)[C@@]3(C)CC[C@@H]12.C[N+](C)=C(N)N [Compound 1, suvanine salt] | – | – | – | – | type of inhibition (ICL from C. albicans): uncompetitive inhibitor; reversibility of binding to enzyme (ICL from C. albicans): reversible; Ki (ICL from C. albicans; obtained by Dixon plot, read-out: Ki (inhibitor constant)): 17.4 µM; ICL IC50 [1]: 22.43 ± 1.49 (12.03 ± 0.80) µg/mL; IC50 ([1]; read-out: ICL IC50): 22.4 µM; MIC, Glucose (C. albicans SC5314; YNB broth with 2% glucose): 100 µg/mL; MIC, Acetate (C. albicans SC5314; [6]): 25 µg/mL
CC1(C)CCC[C@]2(C)[C@H]3CC/C(=C\OS(=O)(=O)[O-])[C@H](CCc4ccoc4)[C@@]3(C)CC[C@@H]12.[Na+] [Compound 2, suvanine salt] | 100 µg/mL | 12.5 µg/mL | 6.35 µM | – | Ki (ICL from C. albicans): 14.4 µM; type of inhibition (ICL from C. albicans): mixed noncompetitive inhibitors; reversibility of binding to enzyme (ICL from C. albicans): reversible; growth on YNB agar plates containing glucose plus compound ([2]; SC5314, MRC10, MRC11, 2% glucose): grew normally; growth on YNB agar plates containing acetate plus compound ([2]; all tested strains, 2% sodium acetate): inhibited markedly; reduction of ICL mRNA expression ([3]; 12.5 μg/mL, 4 h at 28 °C, densitometric analysis): seventeenfold; ICL transcript levels with increasing compound concentration ([3]; SC5314 and MRC11, 6.25 and 12.5 µg/mL): diminished with increasing compound 2 concentrations; MIC, Acetate (C. albicans SC5314; [6]): 12.5 µg/mL
O=C(O)CC[N+](=O)[O-] [Compound 3-NP, 3-Nitropropinate, reference compound] | – | – | – | 17.3 ± 1.04 µM | ICL IC50 [1, 8]: 2.06 ± 0.12 µg/mL; MIC, Glucose (C. albicans SC5314; YNB broth with 2% glucose): >100 µg/mL; MIC, Acetate (C. albicans SC5314; [6]): >100 µg/mL
CC1(C)CCC[C@]2(C)[C@H]3CC/C(=C\OS(=O)(=O)[O-])[C@H](CCC4=CC(=O)O[C@@H]4O)[C@@]3(C)CC[C@@H]12.[Na+] [Compound 3] | > 100 µg/mL | > 100 µg/mL | – | 56.2 ± 7.1 µM | ICL IC50 [1, 8]: 28.33 ± 3.58 µg/mL
CC1(C)CCC[C@]2(C)[C@H]3CC/C(=C\OS(=O)(=O)[O-])[C@H](CCC4=CC(=O)OC4)[C@@]3(C)CC[C@@H]12.[Na+] [Compound 4] | > 100 µg/mL | 100 µg/mL | 26.3 µM and 26.2 µM | – | Ki (ICL from C. albicans): 62.6 µM; type of inhibition (ICL from C. albicans): mixed noncompetitive inhibitors; reversibility of binding to enzyme (ICL from C. albicans): reversible
CO[C@@H]1C=C(CC[C@H]2/C(=C/OS(=O)(=O)[O-])CC[C@H]3[C@]2(C)CC[C@H]2C(C)(C)CCC[C@]32C)C(=O)O1.[Na+] [Compound 5] | > 100 µg/mL | > 100 µg/mL | – | 50.2 ± 6.27 µM | IC50 [1, 9]: 50.2 ± 3.25 µM
CO[C@H]1C=C(CC[C@H]2/C(=C/OS(=O)(=O)[O-])CC[C@H]3[C@]2(C)CC[C@H]2C(C)(C)CCC[C@]32C)C(=O)O1.[Na+] [Compound 6] | > 100 µg/mL | 100 µg/mL | – | 96.2 ± 1.54 µM | IC50 [1, 9]: 96.08 ± 0.799 µM
CO[C@H]1C=C(CC[C@H]2/C(=C/OS(=O)(=O)[O-])CC[C@H]3[C@]2(C)CC[C@H]2C(C)(C)CCC[C@]32C)[C@@H](OC)O1.[Na+] [Compound 7] | > 100 µg/mL | > 100 µg/mL | 59.1 µM and 51.1 µM | – | –
CO[C@@H]1O[C@H](OC)[C@](O)(CC[C@H]2/C(=C/OS(=O)(=O)O)CC[C@H]3[C@]2(C)CC[C@H]2C(C)(C)CCC[C@]32C)[C@H]1O [Compound 8] | > 100 µg/mL | > 100 µg/mL | 67.6 µM | – | –
CC1(C)CCC[C@]2(C)[C@H]3CC/C(=C\OS(=O)(=O)[O-])[C@H](CCC4=CCNC4=O)[C@@]3(C)CC[C@@H]12.[Na+] [Compound 9] | > 100 µg/mL | > 100 µg/mL | – | 59.2 ± 1.11 µM | IC50 [1, 9]: 59.1 ± 0.54 µM
C=C(CC(=O)O)C(=O)O [Itaconate, itaconate, reference compound] | > 100 µg/mL | > 100 µg/mL | – | – | –
